Structures are written as SMILES.

The text below walks through data of patent US20220133738A1, “GENOTYPE AND DOSE-DEPENDENT RESPONSE TO AN ASBTI IN PATIENTS WITH BILE SALT EXPORT PUMP DEFICIENCY” (MIRUM PHARMACEUTICALS, INC., priority 2019, published 2022).

For the data set, the system named is overweight and obese adults. Briefly: Dose-ranging phase 1 clinical study (NCT02475317): fecal bile acid excretion with maralixibat and volixibat. As to conditions: for fBA excretion, mean change from baseline: baseline to day 6 and 7. The class given is in vivo, human.

On to `CCCC[C@]1(CC)CS(=O)(=O)c2ccc(N(C)C)cc2[C@@H](c2cccc(NC(=O)N[C@@H]3O[C@H](COS(=O)(=O)O)[C@@H](O)[C@H](OCc4ccccc4)[C@H]3O)c2)[C@H]1O` [volixibat], for which the “fBA excretion, mean change from baseline” value (10 mg dose (QD), 7 days) was 744 µmol and the “fBA excretion, mean change from baseline” value (20 mg dose (QD), 7 days) came to 874 µmol. In addition, the “fBA excretion, dose dependence” value (across tested doses, 7 days) is recorded as “increased in a dose-dependent manner”. Besides, the treatment-emergent adverse events result (all doses, 7 days) was “mild, and none were serious”. In addition, under “baseline to day 7, greatest change at maralixibat 50 mg BID”, the “Mean serum 7αC4” value is “increased”. Moreover, the “Mean sBA levels” value (day 7 versus baseline) is listed as “not elevated”.
